Source: US11891374B2, “Derivatized benzimidazole compounds, their salts, their complexes, their pharmaceutical compositions and methods for using them for antigeriatric actions” (priority 2020, dated 2024)

Key:
[1] = system: imidazoline receptors of all subtypes; details: cited from earlier work
Drosophila fruit flies = details: in vivo

In the case of `N=C(N)NCCCCN` [Agmatine, N-(4-aminobutyl)guanidine], the “concentration range of binding to imidazoline receptors” value [1] is listed as 0.5 to 5 mM.
With `Cc1cc(C)c2c(c1)nc(Cn1c3ccccc3c(=O)c3ccccc31)n2C` [XVg] the “MLS (day) Females” value (Drosophila fruit flies) was 67 ± 9 days, the “MLS (day) Males” value (Drosophila fruit flies) was 66 ± 9 days and the “extension of lifespan / MLS versus control” value (Drosophila fruit flies) was roughly 3 fold. The “lifespan of Drosophila extended to” value (Drosophila fruit flies) was 70 days.
